Results taken from US6861554B2, “Creatine salt having enhanced nutritional and therapeutic efficacy and compositions containing same” (Biosalts s.r.l., priority 2001, dated 2005).

How the values were obtained:
[1] = test system: muscle cells; assay: increase in glucose uptake by the muscle cells with respect to insulin; format: cell-based
[2] = stability and hygroscopicity of the salt; format: physicochemical

Compound	Glucose uptake (percentage of increase in the glucose uptake by the muscle cells with respect to insulin) ([1]; 2.5 grams of substance)	Glucose uptake (percentage of increase in the glucose uptake by the muscle cells with respect to insulin) ([1]; 5.0 grams of substance)	hygroscopicity [2]	stability [2]
CN(CC(=O)O)C(=N)N.O [Creatine monohydrate, creatine monohydrate]	1-2%			
NCCS(=O)(=O)O [Taurine, 2-aminoethanesulphonic acid]	15-18%			
Creatine Taurinate		25-28%	non hygroscopic	stable
